The values below come from patent publication US4785008A, “N-substituted 2-amino-thiazoles, process for their preparation and their therapeutic application” (Laboratoires Chauvin-Blache, priority 1985, dated 1988).

The test system of data set [1] is prostanoid pathways (thromboxane B2) in rabbit platelets. The data set is described as follows: Inhibition of the metabolism of [14C]arachidonate in rabbit platelets (disappearance of TXB2). Type of data set: cell-based. The settings on record: Oryctolagus cuniculus, Platelet. The protocol: 1.2--Inhibition of the metabolism of [^14 C]arachidonate in rabbit platelets
12 ml of blood are withdrawn nitracardially into ACD (anticoagulant consisting of an aqueous solution containing 0.27 g of citric acid, 0.5 g of disodium citrate and 0.02 g of glucose for 20 ml of water) in a proportion of 1 volume of ACD for 6 volumes of blood. The mixture is centrifuged (10 minutes, 200×g, 20° C.), and the supernatent (PRP) collected and centrifuged again (15 minutes, 1500×g, 20° C.). The platelet pellet is washed in buffer I [NaCl, 8 g/l; Tris, 1.21 g/l; KCl, 0.2 g/l; gelatin, 2.5 g/l; this mixture is heated to 90° C. to dissolve the gelatin, and then glucose, 1 g/l, and ethylene glycol bis(β-aminoethyl ether) N,N,N',N'-tetraacetic acid or EGTA, 0.075 g/l, are added]. The suspension is centrifuged (15 minutes, 1500×g, 20° C.) and the pellet taken up in buffer II (NaCl, 8 g/l; Tris, 1.21 g/l; KCl, 0.2 g/l; CaCl2, 0.145 g/l; MgCl2, 0.2 g/l; gelatin, 2.5 g/l; the mixture is brought to 90° C., glucose, 1 g/l, is added and the pH is adjusted to 7.4 with 0.1N HCl).
The platelet suspension (0.4 ml/tube) is preincubated for 10 minutes at 37° C., either with 10 μl of DMSO (control), or with varied concentrations of test compounds dissolved in 10 μl of DMSO.
The incubation is carried out in the presence of [^14 C]arachidonate (1 μg, 0.2 μCi) distributed in 0.1 ml of buffer II, and the incubation is then blocked after 15 minutes with 50 μl of citric acid and 250 μl of saturated NaCl.
After extraction with ethyl acetate, the metabolites of [^14 C]arachidonate are separated by thin layer chromatography and quantified using a radio-scanner.
The percentage inhibition of the prostanoid pathways is estimated by measuring the disappearance of thromboxane B2 (TXB2) in terms of the concentration of each compound.
Results corresponding to 50 μM and 100 μM of compounds of formula I are given by way of example in Table II.

Data set [2] deals with lipoxygenase of circulating human leukocytes (PMNs). As to the kind of experiment: Inhibition of the lipoxygenase of circulating human leukocytes (PMNs), by radioimmunoassay of LTC4. The settings on record: Leukocyte, 8 min, calcium ionophore A23187 (0.25 μM), 8 minutes at 37° C. It counts as cell-based. The protocol: 1.1--Inhibition of the lipoxygenase of circulating human leukocytes (PMNs), by radioimmunoassay of LTC4 Methods Heparinized human blood is sedimented for 1 hour at 37° C. in sterile saline solution containing 4.5% of Dextran T 500. The upper, leukocyte-rich phase, is collected, deposited on Ficoll-Paque (7:3 v/v) and then centrifuged (20 minutes, 400×g, 4° C.). The centrifugation pellet is treated with 0.75% strength NH4 Cl to lyse the red cells. After centrifugation (20 minutes, 400×g, 4° C.), supernatent is removed and the pellet is resuspended in Dulbecco's PBS buffer containing 1 mM calcium chloride. […] The incubation is blocked by adding one volume of ice-cold water, and the suspension is centrifuged (15 minutes, 1500×g, 4° C.). Aliquots of the supernatent are then subjected to radioimmunoassay (New England Nuclear Kit). The percentage inhibition of the 5-lipoxygenase pathway is measured in terms of the concentration of each compound. From these curves, the concentration which 50% inhibits LTC4 tracer formation (IC50) is deduced.

Data set [3] relates to leukocyte infiltration into the aqueous humour. The settings on record: recent experimental studies; cited from earlier work.
A short description of data set [4]: Acute toxicity (LD50) in rats. The note with it: rat, in vivo, 14 days of observation, with 5% confidence interval. The protocol: The rats used are of Wistar strain of average weight 150 g.
The LD50 is determined after 14 days of observation.
The results below give the LD50 values for the compound 3 of the invention, together with the 5% confidence interval.

The test system of data set [5] is protein influx into the anterior chamber of the eye. As to the kind of experiment: Inhibition of protein influx into the anterior chamber of the eye after corneal paracentesis. The note with it: rabbit eye. It counts as in vivo, albino New Zealand rabbits. The protocol:
Anti-inflammatory activity measured by the inhibition of protein influx into the anterior chamber of the eye after corneal paracentesis. […] The effect of various concentrations of each compound is measured on 6 eyes of albino New Zealand rabbits.

SMILES strings stand for the structures.

Take `Oc1cccnc1Nc1nccs1` [Compound 7]: in data set [1], testing at 50 µM gave an inhibition of 36% and the inhibition – broadly, the share of the control response that was lost under treatment – at 100 µM came out at 36%.
Molecule `Cc1cc(C)c(O)c(Nc2nccs2)c1` [Compound 6] came in with an inhibition at 50 µM in data set [1] of 70%. The IC50 (as a rule, the concentration that gives 50% inhibition) in data set [2] was found to be 0.2 µM.
With `COc1ccc2c(c1)c(CC(=O)O)c(C)n2C(=O)c1ccc(Cl)cc1` [Indomethacin], the “leukocyte infiltration into the aqueous humour” value in data set [3] is on record as “increases the leukocyte infiltration into the aqueous humour”.
Regarding `Oc1ccccc1Nc1nccs1` [Compound 1], in data set [1], at 50 µM the inhibition was 34% and 100 µM produced 91% inhibition. Besides, the IC50 in data set [2] came to 1.2 µM.
Regarding `Cc1ccc(Nc2nccs2)c(O)c1.Cl` [Compound 3, 2-(2-hydroxy-4-methylphenyl)aminothiazole hydrochloride], testing at 50 µM in data set [1] gave an inhibition of 100%. The molecule further gave an inhibition at 100 µM in data set [1] of 100%. Moreover, the LD50 (in general, the dose expected to kill half of the subjects tested) at 336 h in data set [4] (iv, female rat) was 51 ± 2 mg/kg; in data set [4] (iv, male rat), 51 ± 2 mg/kg; in data set [4] (po, female rat), 2350 ± 90 mg/kg; in data set [4] (po, male rat) it was 2950 ± 96 mg/kg. Moreover, the IC50 in data set [2] turned out to be 0.33 µM. Besides, the figures for the “Inhibition (%) of protein influx into the anterior chamber of the eye after corneal paracentesis” value in data set [5] (0.1 mg/100 ml), in data set [5] (0.5 mg/100 ml) and in data set [5] (1 mg/100 ml) were 20%, 35% and 50%, respectively.
`Cc1ccc(O)c(Nc2nccs2)c1` [Compound 4]: 50 µM produced 68% inhibition in data set [1]. Further, the IC50 in data set [2] was 0.25 µM.
In data set [1], `Oc1ccc(Cl)cc1Nc1nccs1` [Compound 2] displayed an inhibition at 50 µM of 100% and an inhibition at 100 µM of 100%. Moreover, the IC50 in data set [2] is 0.3 µM.
As to `CC(C)(C)c1ccc(Nc2nccs2)c(O)c1` [Compound 5], in data set [1], the inhibition at 50 µM was 76%. The IC50 in data set [2] was determined as 1.6 µM.
